Assay results from patent publication US20160194299A1 (priority 2013, published 2016).
Values after ≈ are worked out from the molar mass of the structure shown. Read-outs that look alike come from different tables or passages of the source.

Experiments:
Mtb [1] = experiment: microbe, parasite or virus in culture; assay type: cell-based, Mycobacterium tuberculosis; conditions: Mycobacterium tuberculosis, read-out: MIC (III)
Mtb [2] = experiment: microbe, parasite or virus in culture; assay type: cell-based, Mycobacterium tuberculosis; conditions: Mycobacterium tuberculosis
in vitro = conditions: African green monkey
[3] = read-out: MIC, microplate alamar blue assay (MABA; I)

Compound | MIC (Mtb [1]) [mg/L] | MIC (Mtb [2]; read-out: MIC (I)) [mg/L] | CC50 (in vitro) [mg/L] | MIC (Mtb [2]; [3]) [mg/L]
CCOC(=O)NC(=O)c1ccsc1NC(=O)c1nc2cc(C#N)cnc2s1 [Compound 54] | > 25 | < 1 |  | 
CCOC(=O)NC(=O)c1ccsc1NC(=O)c1nc2c(s1)CCNC2=O [Compound 55] | > 25 | > 3 |  | 
CCOC(=O)NC(=O)c1ccsc1NC(=O)c1cn2ccncc2n1 [Compound 78] | > 25 | > 3 |  | 
CCOC(=O)NC(=O)c1ccsc1NC(=O)c1nc2c(s1)CCN(CC)C2 [Compound 79] | > 25 | 1 to 3 (≈ 2.45 to 7.34 µM) |  | 
CCOC(=O)NC(=O)c1ccsc1NC(=O)c1cnc2ncccn12 [Compound 80] | > 25 | 1 to 3 (≈ 2.78 to 8.35 µM) |  | 
CCOC(=O)NC(=O)c1ccsc1NC(=O)c1cnc2ccnn2c1 [Compound 81] | > 25 | < 1 |  | 
CCOC(=O)NC(=O)c1ccsc1NC(=O)c1nc2c(s1)CCN(C(=O)OC)C2 [Compound 95] | > 25 | < 1 |  | 
CCOC(=O)NC(=O)c1ccsc1NC(=O)c1nc2c(s1)CCN(S(C)(=O)=O)C2 [Compound 96] | > 25 | < 1 |  | 
CCOC(=O)NC(=O)c1c(C2CC2)csc1NC(=O)c1nc2ccccc2s1 [Compound 245] | > 25 | > 3 |  | 
CCOC(=O)NC(=O)c1ccsc1NC(=O)c1cccnn1 [Compound 249] | > 25 | > 3 |  | 
CCOC(=O)NC(=O)c1ccsc1NC(=O)c1cc2ncccn2n1 [Compound 250] | 5 to 25 (≈ 13.9 to 69.6 µM) | < 1 |  | 
CCOC(=O)NC(=O)c1ccsc1NC(=O)c1ccn2nccc2c1 [Compound 251] | 5 to 25 (≈ 14 to 69.8 µM) | < 1 |  | 
CCOC(=O)NC(=O)c1ccsc1NC(=O)c1ccn2nccc2n1 [Compound 252] | > 25 | > 3 |  | 
CCOC(=O)NC(=O)c1ccsc1NC(=O)c1cnn2cccnc12 [Compound 253] | > 25 | > 3 |  | 
CC(C)OC(=O)NC(=O)c1ccsc1NC(=O)c1cn2ccccc2n1 [Compound 323] | > 25 | 1 to 3 (≈ 2.69 to 8.06 µM) |  | 
O=C(NC(=O)c1ccsc1NC(=O)c1cnc2ccnn2c1)OC1CCC1 [Compound 324] | > 25 | < 1 |  | 
CC(OC(=O)NC(=O)c1ccsc1NC(=O)c1nc2cnccc2s1)C(F)(F)F (stereo not drawn) [Compound 325] | > 25 | < 1 |  | 
CC(OC(=O)NC(=O)c1ccsc1NC(=O)c1cnc2ccnn2c1)C(F)(F)F (stereo not drawn) [Compound 326] | > 25 | > 3 |  | 
COC(=O)COC(=O)NC(=O)c1ccsc1NC(=O)c1nc2cnccc2s1 [Compound 431] |  |  | 25 to 50 (≈ 59.5 to 119 µM) | < 1
COC(=O)c1ccsc1NC(=O)c1nc2cnccc2s1 [Compound 432] |  |  | 25 to 50 (≈ 78.3 to 157 µM) | > 3
CC(C)OC(=O)NC(=O)c1ccsc1NC(=O)c1cn2ccc(C#N)cc2n1 [Compound 433] |  |  | 25 to 50 (≈ 62.9 to 126 µM) | 1 to 3 (≈ 2.52 to 7.55 µM)
O=C(NC(=O)c1ccsc1NC(=O)c1nc2ncccc2s1)OCC(F)(F)F [Compound 434] |  |  | 25 to 50 (≈ 58.1 to 116 µM) | > 3
O=C(Nc1sccc1C(=O)Nc1nccs1)c1nc2cnccc2s1 [Compound 435] |  |  | 25 to 50 (≈ 64.5 to 129 µM) | > 3
COCCOC(=O)NC(=O)c1ccsc1NC(=O)c1nc2ncccc2s1 [Compound 436] |  |  | 25 to 50 (≈ 61.5 to 123 µM) | > 3
O=C(NC(=O)c1ccsc1NC(=O)c1nc2ncccc2s1)OCCOCc1ccccc1 [Compound 437] |  |  | < 25 | < 1
CCOC(=O)NC(=O)c1ccsc1NC(=O)c1cn2cc(S(C)(=O)=O)ccc2n1 [Compound 438] |  |  | 25 to 50 (≈ 57.3 to 115 µM) | < 1
CC(C)OC(=O)NC(=O)c1ccsc1NC(=O)c1cn2cc(S(C)(=O)=O)ccc2n1 [Compound 439] |  |  | 25 to 50 (≈ 55.5 to 111 µM) | > 3
O=C(Nc1sccc1C(=O)Nc1cnccn1)c1nc2cnccc2s1 [Compound 440] |  |  | 25 to 50 (≈ 65.4 to 131 µM) | > 3
O=C(Nc1sccc1C(=O)Nc1ncccn1)c1nc2cnccc2s1 [Compound 441] |  |  | 25 to 50 (≈ 65.4 to 131 µM) | < 1
O=C(Nc1sccc1C(=O)Nc1cccnn1)c1nc2cnccc2s1 [Compound 442] |  |  | 25 to 50 (≈ 65.4 to 131 µM) | 1 to 3 (≈ 2.61 to 7.84 µM)
